One test addresses T1, human CRF2α receptor (Homo sapiens, UniProt Q13324).
T1 construct: expressed in transfected cells; host or cells: TeloHEAC
T1 sequence (Q13324 1-411): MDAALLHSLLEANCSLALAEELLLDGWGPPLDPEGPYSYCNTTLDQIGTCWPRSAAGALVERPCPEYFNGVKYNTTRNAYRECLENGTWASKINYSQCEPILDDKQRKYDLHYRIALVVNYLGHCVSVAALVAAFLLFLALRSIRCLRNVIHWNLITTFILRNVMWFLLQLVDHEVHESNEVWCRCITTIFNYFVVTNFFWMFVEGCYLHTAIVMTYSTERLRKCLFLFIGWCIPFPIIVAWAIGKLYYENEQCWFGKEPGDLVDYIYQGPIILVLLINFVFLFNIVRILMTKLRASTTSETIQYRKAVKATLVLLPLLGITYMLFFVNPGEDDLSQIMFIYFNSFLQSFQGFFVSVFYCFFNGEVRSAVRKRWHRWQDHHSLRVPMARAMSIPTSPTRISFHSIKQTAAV
Put plainly: cAMP agonism at human CRF2α receptor in TeloHEAC cells, FA modified peptides (Example 19.9). Format: cell-based. The settings on record: 0% HSA, relative to urocortin 2. How it is done: Agonism of compounds for human corticotropin-releasing factor 2α (CRF2α receptor) was determined by a functional assay measuring cAMP modulation upon treatment of TeloHEAC cells stably expressing human CRF2α receptor.
Compounds were dissolved at 0.5 mM in 100% DMSO and serially diluted (1:2) in 100% DMSO for 16 dilutions. 20 nL of each dilution was then transferred to 384-well assay plate using an acoustic droplet ejection instrument. 5 μL of compound buffer (1×HBSS; 20 mM HEPES, 2 mM IBMX, 0% or 0.2% HSA) were then added to each well.
Prior to use, frozen cells were thawed quickly at 37° C. and washed (5 min at 900 rpm) with 20 mL cell buffer (1×HBSS; 20 mM HEPES). Cells were resuspended in cell buffer and adjusted to a cell density of 800.000 cells/ml.
5 μL cells (final dell density: 4000 cells/well) were dispensed in the compound-containing 384-well assay plate and incubated for 30 minutes 37° C.
The CAMP level in treated cells was determined using the Cisbio 62AM4PEC kit according to manufacturer's instruction. Finally, plates were incubated for 1 h at room temperature before measuring the fluorescence ratio between 665/620 nm.
The percent activity value (E %) was calculated by setting 100 nM of urocortin 2 (UCN2) as 100%. The in vitro potency of the compounds was quantified by determining the concentrations that caused 50% activation of maximal response (EC50) relative to urocortin 2.

The target in another test is T2, CRF1R receptor (Homo sapiens, UniProt P34998).
T2 construct: host or cells: CHO-K1 clone 2
T2 sequence (P34998 24-415): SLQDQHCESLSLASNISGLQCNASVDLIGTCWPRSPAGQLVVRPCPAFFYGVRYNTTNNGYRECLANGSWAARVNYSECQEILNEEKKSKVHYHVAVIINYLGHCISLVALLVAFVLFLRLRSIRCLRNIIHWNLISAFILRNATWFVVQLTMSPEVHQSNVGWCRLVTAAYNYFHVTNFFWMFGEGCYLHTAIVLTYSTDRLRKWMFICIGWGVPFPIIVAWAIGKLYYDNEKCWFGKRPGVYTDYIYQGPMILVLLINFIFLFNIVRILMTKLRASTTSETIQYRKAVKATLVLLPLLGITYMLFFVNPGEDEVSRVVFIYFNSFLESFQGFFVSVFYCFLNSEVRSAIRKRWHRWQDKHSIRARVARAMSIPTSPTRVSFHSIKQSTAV
As to the kind of experiment: cAMP activity at anti-target CRF1R, CHO-K1 cell line clone 2 (Example 19.10). It counts as cell-based. The note with it: CRF1R CHO-K1 clone 2; for EC50: 0% HSA, read-out: EC50 [nM] 0% HSA; for Emax: 100% = Sauvagine at 100 nM. The gist of the method:
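A CRF1R-overexpressing CHO-K1 line (clone 2) was grown in F12/10% FBS/G418 and frozen in aliquots before use. The cAMP assay followed the preceding procedure, with 100% activation defined by Sauvagine at 100 nM.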

Among the data in patent publication US12679878B2, “CRF2 receptor agonists and their use in therapy” (SANOFI, priority 2020, dated 2026) are EC50 and Emax values, retold here.

Broadly, the EC50 is the concentration at which the effect is half-maximal. A word on the Emax: it is the greatest response seen or fitted, relative to the assay's reference.

Starred links: 1 amine or outer side, 2 acyl side, 3 side chain; linkers in the order of their positions; H or OH if unused. Non-standard residues stand in square brackets, D forms with d. Residues, ends and D or L forms follow the SMILES beside them. Groups on a side chain read outwards from the residue. *: point of attachment. C16 diacid = O=C(O)CCCCCCCCCCCCCCC(=O)*; γGlu = O=C(O)[C@H](CCC(=O)[*:2])N[*:1]; AEEA = NCCOCCOCC(=O)O; Aib = CC(C)(N)C(=O)O

In turn, `CC[C@H](C)[C@H](N)C(=O)N[C@H](C(=O)N[C@@H](CC(C)C)C(=O)N[C@@H](CO)C(=O)N[C@@H](CC(C)C)C(=O)N[C@@H](CC(=O)O)C(=O)N[C@@H](C(=O)N1CCC[C@H]1C(=O)N[C@H](C(=O)N[C@@H](CCCCN)C(=O)N[C@@H](CC(C)C)C(=O)N[C@@H](CCCCNC(=O)COCCOCCNC(=O)COCCOCCNC(=O)CC[C@H](NC(=O)CCCCCCCCCCCCCCC(=O)O)C(=O)O)C(=O)N[C@@H](CCC(N)=O)C(=O)N[C@H](C(=O)N[C@@H](CC(C)C)C(=O)N[C@@H](CC(C)C)C(=O)N[C@@H](CCCCN)C(=O)N[C@@H](CCC(N)=O)C(=O)N[C@@H](CCC(=O)O)C(=O)N[C@@H](CCCNC(=N)N)C(=O)N[C@@H](CCC(N)=O)C(=O)N[C@@H](CCCCN)C(=O)NC(C)(C)C(=O)N[C@@H](CCC(N)=O)C(=O)N[C@@H](CCCNC(=N)N)C(=O)N[C@@H](CCC(=O)O)C(=O)N[C@@H](CCC(N)=O)C(=O)N[C@@H](C)C(=O)N[C@@H](CCC(=O)O)C(=O)N[C@@H](CCCCN)C(=O)N[C@@H](CC(N)=O)C(=O)N[C@@H](CCCCN)C(=O)N[C@@H](CCC(N)=O)C(=O)N[C@H](C(=O)N[C@@H](CC(C)C)C(=O)N[C@@H](C)C(=O)N[C@@H](CCC(N)=O)C(=O)N[C@H](C(N)=O)C(C)C)[C@@H](C)CC)[C@@H](C)CC)[C@@H](C)CC)C(C)C)C(C)C` [compound 198] (H-IVLSLD[dV]PIKLK([AEEA-AEEA-γGlu-C16 diacid])QILLKQERQK[Aib]QREQAEKNKQILAQV-NH2; N-terminus assumed) registered an EC50 on human CRF2α receptor of 0.49 nM. In addition, on CRF1R receptor, the EC50 is > 100 nM and the Emax was 1.4%.

`CC[C@H](C)[C@H](N)C(=O)N[C@H](C(=O)N[C@@H](CC(C)C)C(=O)N[C@@H](CO)C(=O)N[C@@H](CC(C)C)C(=O)N[C@@H](CC(=O)O)C(=O)N[C@@H](C(=O)N1CCC[C@H]1C(=O)N[C@H](C(=O)N[C@@H](CCCCN)C(=O)N[C@@H](CC(C)C)C(=O)N[C@@H](CCCCNC(=O)COCCOCCNC(=O)COCCOCCNC(=O)CC[C@H](NC(=O)CC[C@H](NC(=O)CCCCCCCCCCCCCCC(=O)O)C(=O)O)C(=O)O)C(=O)N[C@@H](CCC(N)=O)C(=O)N[C@H](C(=O)N[C@@H](CC(C)C)C(=O)N[C@@H](CC(C)C)C(=O)N[C@@H](CCCCN)C(=O)N[C@@H](CCC(N)=O)C(=O)N[C@@H](CCC(=O)O)C(=O)N[C@@H](CCCNC(=N)N)C(=O)N[C@@H](CCC(N)=O)C(=O)N[C@@H](CCCCN)C(=O)NC(C)(C)C(=O)N[C@@H](CCC(N)=O)C(=O)N[C@@H](CCCNC(=N)N)C(=O)N[C@@H](CCC(=O)O)C(=O)N[C@@H](CCC(N)=O)C(=O)N[C@@H](C)C(=O)N[C@@H](CCC(=O)O)C(=O)N[C@@H](CCCCN)C(=O)N[C@@H](CC(N)=O)C(=O)N[C@@H](CCCCN)C(=O)N[C@@H](CCC(N)=O)C(=O)N[C@H](C(=O)N[C@@H](CC(C)C)C(=O)N[C@@H](C)C(=O)N[C@@H](CCC(N)=O)C(=O)N[C@H](C(N)=O)C(C)C)[C@@H](C)CC)[C@@H](C)CC)[C@@H](C)CC)C(C)C)C(C)C` [compound 199] (H-IVLSLD[dV]PIKLK([AEEA-AEEA-γGlu-γGlu-C16 diacid])QILLKQERQK[Aib]QREQAEKNKQILAQV-NH2; N-terminus assumed) displayed an EC50 on human CRF2α receptor of 1.39 nM. On CRF1R receptor, the EC50 is > 100 nM and the Emax was -2.9%.

Take `CC[C@H](C)[C@H](N)C(=O)N[C@H](C(=O)N[C@@H](CC(C)C)C(=O)N[C@@H](CO)C(=O)N[C@@H](CC(C)C)C(=O)N[C@@H](CC(=O)O)C(=O)N[C@@H](C(=O)N1CCC[C@H]1C(=O)N[C@H](C(=O)N[C@@H](CCCCN)C(=O)N[C@@H](CC(C)C)C(=O)N[C@@H](CCCCNC(=O)COCCOCCNC(=O)COCCOCCNC(=O)CC[C@H](NC(=O)CCCCCCCCCCCCCCC(=O)O)C(=O)O)C(=O)N[C@@H](CCC(N)=O)C(=O)N[C@H](C(=O)N[C@@H](CC(C)C)C(=O)N[C@@H](CC(C)C)C(=O)N[C@@H](CCCCN)C(=O)N[C@@H](CCC(N)=O)C(=O)N[C@@H](CCC(=O)O)C(=O)N[C@@H](CCCNC(=N)N)C(=O)N[C@@H](CCC(N)=O)C(=O)N[C@@H](CCCCN)C(=O)N[C@@H](CCCCN)C(=O)NC(C)(C)C(=O)N[C@@H](CCCNC(=N)N)C(=O)N[C@@H](CCC(N)=O)C(=O)N[C@@H](CCCCN)C(=O)N[C@@H](C)C(=O)N[C@@H](CCC(=O)O)C(=O)N[C@@H](CCCCN)C(=O)N[C@@H](CC(N)=O)C(=O)N[C@@H](CCCCN)C(=O)N[C@@H](CCC(N)=O)C(=O)N[C@H](C(=O)N[C@@H](CC(C)C)C(=O)N[C@@H](C)C(=O)N[C@@H](CCC(N)=O)C(=O)N[C@H](C(N)=O)C(C)C)[C@@H](C)CC)[C@@H](C)CC)[C@@H](C)CC)C(C)C)C(C)C` [compound 200] (H-IVLSLD[dV]PIKLK([AEEA-AEEA-γGlu-C16 diacid])QILLKQERQKK[Aib]RQKAEKNKQILAQV-NH2; N-terminus assumed): the EC50 on human CRF2α receptor was 8.7 nM; on CRF1R receptor, > 100 nM. Also, the Emax at CRF1R receptor was 1.9%.

Regarding `CC[C@H](C)[C@H](N)C(=O)N[C@H](C(=O)N[C@@H](CC(C)C)C(=O)N[C@@H](CO)C(=O)N[C@@H](CC(C)C)C(=O)N[C@@H](CC(=O)O)C(=O)N[C@@H](C(=O)N1CCC[C@H]1C(=O)N[C@H](C(=O)N[C@@H](CCCCN)C(=O)N[C@@H](CC(C)C)C(=O)N[C@@H](CCCCNC(=O)COCCOCCNC(=O)COCCOCCNC(=O)CC[C@H](NC(=O)CC[C@H](NC(=O)CCCCCCCCCCCCCCC(=O)O)C(=O)O)C(=O)O)C(=O)N[C@@H](CCC(N)=O)C(=O)N[C@H](C(=O)N[C@@H](CC(C)C)C(=O)N[C@@H](CC(C)C)C(=O)N[C@@H](CCCCN)C(=O)N[C@@H](CCC(N)=O)C(=O)N[C@@H](CCC(=O)O)C(=O)N[C@@H](CCCNC(=N)N)C(=O)N[C@@H](CCC(N)=O)C(=O)N[C@@H](CCCCN)C(=O)N[C@@H](CCCCN)C(=O)NC(C)(C)C(=O)N[C@@H](CCCNC(=N)N)C(=O)N[C@@H](CCC(N)=O)C(=O)N[C@@H](CCCCN)C(=O)N[C@@H](C)C(=O)N[C@@H](CCC(=O)O)C(=O)N[C@@H](CCCCN)C(=O)N[C@@H](CC(N)=O)C(=O)N[C@@H](CCCCN)C(=O)N[C@@H](CCC(N)=O)C(=O)N[C@H](C(=O)N[C@@H](CC(C)C)C(=O)N[C@@H](C)C(=O)N[C@@H](CCC(N)=O)C(=O)N[C@H](C(N)=O)C(C)C)[C@@H](C)CC)[C@@H](C)CC)[C@@H](C)CC)C(C)C)C(C)C` [compound 201] (H-IVLSLD[dV]PIKLK([AEEA-AEEA-γGlu-γGlu-C16 diacid])QILLKQERQKK[Aib]RQKAEKNKQILAQV-NH2; N-terminus assumed), the half-maximal effective concentration (EC50) at human CRF2α receptor was 4.66 nM; at CRF1R receptor it was > 100 nM. Also, the Emax at CRF1R receptor was -2.8%.
